According to article PMC6318274, “Lattice engineering enables definition of molecular features allowing for potent small-molecule inhibition of HIV-1 entry” (Nature Communications, 2019):
Where two headings read alike, the source gives them in different places.

Tested on: HIV-1 Env-pseudoviruses (208-strain panel)
Experiment: microbe, parasite or virus in culture
Format: cell-based
Settings: Human immunodeficiency virus 1, TZM-bl, read-out: IC50
Procedure: Neutralization was measured using single-round-of-infection HIV-1 Env-pseudoviruses and TZM-bl target cells (ARP Cat No. #8129)[44],[45]. Compounds were prepared at 400 μM with 4% DMSO (dimethyl sulfoxide) in PBS (phosphate-buffered saline) and diluted 20 times as the starting concentration for serial dilution in the neutralization assays. […] After incubation at 37 °C for 2 days, infection of target cells was measured by luciferase activity. Neutralization curves were fit by nonlinear regression using a five-parameter hill slope equation[45].

COc1cnc(-c2csc(C(=O)NCCO)n2)c2[nH]cc(C(=O)C(=O)N3CCC(=C(C#N)c4ccccc4)CC3)c12 [BMS-818251]
IC50 (CNE5, clade AE): 465 nM | IC50 (CNE7, clade BC): 0.4 nM | IC50 (CNE8, clade AE): 2680 nM | IC50 (CNE10 (Clade B)): 0.1 nM | IC50 (CNE12, clade B): 2 nM | IC50 (CNE14, clade B): 1120 nM | IC50 (CNE15, clade BC): 0.1 nM | IC50 (CNE19, clade BC): 0.1 nM | IC50 (CNE20 (Clade BC)): 6 nM | IC50 (CNE21, clade BC): 0.3 nM | IC50 (CNE30, clade C): 0.2 nM | IC50 (CNE31, clade C): 1 nM | IC50 (CNE40, clade BC): 1 nM | IC50 (CNE55, clade AE): 282 nM | IC50 (CNE56 (Clade AE)): 797 nM | IC50 (CNE57, clade B): 0.3 nM | IC50 (CNE58, clade C): 0.2 nM | IC50 (CNE59, clade AE): 506 nM | IC50 (Ce1176.A3, clade C): 0.9 nM | IC50 (DJ263.8 (Clade AG)): 0.2 nM | IC50 (DU123.06, clade C): 0.3 nM | IC50 (DU151.02, clade C): 0.2 nM | IC50 (DU156.12 (Clade C)): 0.2 nM | IC50 (DU172.17, clade C): 0.1 nM | IC50 (DU422.01, clade C): 0.7 nM | IC50 (HO86.8, clade B): 4 nM | IC50 (HT593.1, clade B): 0.1 nM | IC50 (JRFL.JB, clade B): 0.1 nM | IC50 (KER2008.12 (Clade A)): 15 nM | IC50 (KER2018.11, clade A): 0.3 nM | IC50 (KNH1209.18, clade A): 0.4 nM | IC50 (M02138, clade AE): 28 nM | IC50 (MB201.A1 (Clade A)): 9 nM | IC50 (MB539.2B7, clade A): 2 nM | IC50 (MI369.A5, clade A): 0.3 nM | IC50 (MN.3, clade B): 0.6 nM | IC50 (MS208.A1, clade A): 0.3 nM | IC50 (MW965.26, clade C): 6 nM | IC50 (NKU3006.ec1 (Clade D)): 0.2 nM | IC50 (P0402.c2.11 (Clade G)): 0.2 nM | IC50 (P1981.C5.3, clade G): 0.5 nM | IC50 (PVO.04 (Clade B)): 0.4 nM | IC50 (Q23.17, clade A): 0.5 nM | IC50 (Q168.a2, clade AD): 3 nM | IC50 (Q259.17, clade A): 7 nM | IC50 (Q461.e2, clade AD): 0.3 nM | IC50 (Q769.d22, clade A): 1 nM | IC50 (Q769.h5, clade A): 2 nM | IC50 (Q842.d12, clade A): 0.4 nM | IC50 (QH209.14M.A2, clade A): 60 nM | IC50 (QH0515.01, clade B): 31 nM | IC50 (QH0692.42, clade B): 0.7 nM | IC50 (R1166.c1, clade AE): > 20000 nM | IC50 (R2184.c4, clade AE): 2040 nM | IC50 (R3265.c6 (Clade AE)): 122 nM | IC50 (REJO.67 (Clade B)): 590 nM | IC50 (RHPA.7, clade B): 0.5 nM | IC50 (RW020.2, clade A): 0.7 nM | IC50 (SF162.LS, clade B): 0.1 nM | IC50 (SO18.18, clade C): 0.2 nM | IC50 (SS1196.01, clade B): 579 nM | IC50 (T33-7, clade AG): 252 nM | IC50 (T250-4, clade AG): 0.4 nM | IC50 (T251-18, clade AG): 0.6 nM | IC50 (T253-11 (Clade AG)): 0.1 nM | IC50 (T255-34, clade AG): 2 nM | IC50 (T257-31, clade AG): 1 nM | IC50 (T266-60, clade AG): 42 nM | IC50 (T278-50, clade AG): 0.1 nM | IC50 (T280-5 (Clade AG)): 0.4 nM | IC50 (TH023.6, clade AE): > 20000 nM | IC50 (TH966.8, clade AE): 923 nM | IC50 (TH976.17, clade AE): 1280 nM | IC50 (THRO.18, clade B): 0.2 nM | IC50 (TRJO.58, clade B): 0.1 nM | IC50 (TRO.11, clade B): 127 nM | IC50 (TV1.29, clade C): 1 nM | IC50 (TZA125.17, clade C): 1 nM | IC50 (TZBD.02, clade C): 0.3 nM | IC50 (UG021.16, clade D): 0.2 nM | IC50 (UG024.2, clade D): > 20000 nM | IC50 (UG037.8, clade A): 10 nM | IC50 (WITO.33, clade B): 0.8 nM | IC50 (X1254.c3, clade G): 0.2 nM | IC50 (X1632.S2.B10, clade G): 0.3 nM | IC50 (X2088.c9, clade G): 0.3 nM | IC50 (X2131.C1.B5, clade G): 1 nM | IC50 (X2278.C2.B6, clade B): 440 nM | IC50 (YU2.DG, clade B): 0.5 nM | IC50 (ZA012.29, clade C): 0.5 nM | IC50 (ZM53.12, clade C): 0.4 nM | IC50 (ZM55.28a, clade C): 0.3 nM | IC50 (ZM106.9 (Clade C)): 2 nM | IC50 (ZM109.4, clade C): 0.1 nM | IC50 (ZM135.10a, clade C): 153 nM | IC50 (ZM176.66, clade C): 1 nM | IC50 (ZM197.7, clade C): 0.2 nM | IC50 (ZM214.15, clade C): 0.2 nM | IC50 (ZM215.8, clade C): 0.1 nM | IC50 (ZM233.6, clade C): 0.1 nM | IC50 (ZM249.1, clade C): 0.4 nM | IC50 ([…], clade C): 0.1 nM | IC50 ([…], clade G): 0.6 nM
